Assay results reported in US8445511B2, “Quinoline or quinoxaline derivatives for treating neurodegenerative diseases” (Centre National de la Recherche Scientifique (SNRS), priority 2008, dated 2013).
“Also recorded” adds a separate entry of the source.

Legend:
[1] = test system: fetal dopaminergic neurons in culture; assay: Neuroprotection and differentiation of dopaminergic (TH+) neurons in primary culture of rat embryo mesencephalon (spontaneous degeneration model); assay type: cell-based; design: key to Diff (qualitative assessment of neuron differentiation): + indicates that the neurons have a morphology similar to that of the control; ++ and +++ indicate the presence of neurons whose extensions are longer and more numerous than the control neurons; ++ and +++ indicate the presence of neurons whose extensions are longer and more numerous than the control neurons; − indicates that the neurons have neurites that are shorter and less numerous than the control neurons
Method: Dissection consists in extracting the embryos from the uterus of a rat at fifteen days of gestation. The brain of each embryo is then dissected under a binocular magnifier in order to extract the ventral mesencephalon.
The mesencephalons are gathered in a flask containing 2 ml of L15 medium and then mechanically dissociated (30 times), and then 5 ml of L15 medium are added. The suspension is left to rest for 8 minutes. 5 ml of the supernatant are recovered in a new flask and the cells are dissociated again (30 times). 5 ml of L15 are again added and the suspension is left to rest for 8 minutes. 5 ml of supernatant are added to the preceding. The cells thus extracted are then centrifuged for 5 minutes at 1,000 rpm. The cell pellet is taken up in Neurobasal medium supplemented with 1% B27, 1% glutamine and 1% penicillin/streptomycin mixture. The cells are then inoculated at the appropriate dilution (0.6 embryo per well on a 24-well plate and 0.4 per well on a 48-well plate). The cultures are incubated at 37° C. in a humid atmosphere enriched with 5% CO2 in a 24- or 48-well plate.
After 24 hours, two-thirds of the medium of each well is replaced by new medium enriched with the compound of the invention to test at the appropriate dilution. The medium is replaced in the same way after 4 days of culture.
At 8 days of culture, the cells are fixed by a 4% formaldehyde solution and then washed three times with PBS. The cells then undergo several immunohistochemistry procedures: • anti-tyrosine hydroxylase (TH) visualized by a secondary antibody coupled to a fluorochrome that emits in the red spectrum (Cy3). • anti-MAP2 (MAP=microtubule-associated protein) (neuron marker) visualized by a secondary antibody coupled to a fluorochrome that emits in the green spectrum (alexa488). • DAPI (4′,6-diamidino-2-phenylindole), a nuclear marker that emits in the blue spectrum.
Neuroprotection is evaluated by counting TH positive neurons directly under the microscope or MAP2 positive on images, at 15 images per well, expressed as a percentage of the untreated control. The experiments include three wells per condition. Three independent experiments are carried out under these conditions. Total neurite length per cell calculated by the Neurite Outgrowth software by Explora Nova on 20 neurons photographed independently per well gives an indication of the state of maturation of the dopaminergic neurons.
The compounds of the invention were tested on a model of spontaneous degeneration of dopaminergic neurons in culture.
This model consists of culturing cells of the ventral mesencephalon of rat embryo. This part of the brain in culture contains dopaminergic neurons and other primarily GABAergic neurons. These cultures are also composed of glial cells, namely astrocytes, oligodendrocytes and microglia. This is a model of spontaneous degeneration of dopaminergic neurons which mimics certain aspects of Parkinson's disease.
The neuroprotective effect of the compounds of the invention was evaluated by counting dopaminergic neurons (TH^+) marked by tyrosine hydroxylase (TH) immunohistochemistry after 8 days of culture. Thus the compounds were evaluated at 1 nM, 10 nM, 100 nM and 1 μM and were compared with the activity of dibutyryl cyclic AMP (db-cAMP) used as the reference product.
In order to evaluate more quantitatively the activity of the compounds of the invention, neurite growth per cell was measured using the Neurite Outgrowth software developed by Explora Nova. A minimum of 60 neurons per condition were photographed and studied, and the results were then averaged and normalized by the number of neurons considered.

GABAergic neurons = assay: Measurement of tritiated GABA reuptake in primary mesencephalic cultures; assay type: cell-based, rat; conditions: 12 days of culture; 10 nM and 100 nM; FIG. 6
Method: The primary cultures are treated and cultivated as previously indicated with 0.5 embryo per well in a 24-well plate for 12 days. The medium is then replaced by a medium lacking serum and enriched with glucose (PBS+5 mM glucose). The cells are incubated in this medium for 10 minutes. 50 μl of tritiated GABA in solution (20 μl of 1 mCi/ml ^3H-GABA in 1 ml PBS) is added in each well and the cells are incubated for 5 minutes at 37° C. Since GABA is taken back up very quickly, it is important to be fast when adding reagents and not to handle too many wells at the same time.
All wells except one are then washed twice with PBS, and then 500 μl distilled water is added. The cells are scraped and the liquid transferred to scintillation vials containing 7 ml scintillation liquid (Biodegradable Counting Scintillant-liquid scintillation spectroscopy, BCS), well by well. The plate containing the remaining well is placed on ice for 30 minutes, then 50 μl of the same GABA solution is added. After 5 minutes, the well is washed twice with PBS and then the cells are lysed with 500 μl distilled water, scraped and the liquid is transferred to a vial containing 5 ml scintillation liquid. This well will be used to measure non-specificity. The samples are run through the scintillation counter.

SMILES: C#CC(O)CCCCCCCCCCCCC#Cc1ccc2ccccc2n1 (stereo not drawn) [Compound N3, 17-(quinolin-2-yl)heptadec-1,16-diyn-3-ol]
- dose-response of effect on survival of dopaminergic neurons ([1]; 1 nM, 10 nM, 100 nM and 1 μM, FIG. 2): dose-dependent
- Diff (qualitative assessment of neuron differentiation) ([1]; 100 nM, dopaminergic neurons in culture): +++
- viability at 0.1 µM ([1]; Rattus norvegicus, Neuron, 192 h, 100 nM, survival of TH+ dopaminergic neurons after 8 days of culture, read-out: % Neurons relative to the control ±SEM): 154 ± 4.1%
- neuroprotective activity (percentage of survival of dopaminergic neurons), in words, versus reference product db-cAMP ([1]; dopaminergic neurons, 8 days of culture): equal to or greater than that of the reference product; also recorded: the most active compound
- concentration of maximum effect on survival of dopaminergic neurons ([1]; dose-response curve, FIG. 2): 100 nM
- activity of total neurons of the culture (reuptake of tritiated GABA) versus untreated control (GABAergic neurons): increased
